Source: publication PMC3794980, “Identification of Conserved and HLA Promiscuous DENV3 T-Cell Epitopes” (PLoS Neglected Tropical Diseases, 2013)
Where two headings read alike, the source gives them in different places.

How the values were obtained:
Assay in all cases: biochemical
Type in all cases: binding
DRB1*0401 = DRB1*0401 (Homo sapiens, UniProt P01903+P01911, A100K/A169T/F76Y/I96L/K127E/L162R/M171V/N62H/P40V/Q125Y/R42H/S133A/S149N/S66Y/V115G/V209L/W38E)
DRB1*0802 = DRB1*0802 (Homo sapiens, UniProt P01903+P01911, A100R/A103L/A169T/F76Y/H45Y/I96F/K41T/L162R/M171V/P40S/Q125H/Q178H/Q39Y/Q99D/R218S/R42G/S66Y/V115G/W38E)
DRB1*0301 = DRB1*0301 (Homo sapiens, UniProt P01903+P01911, A100K/A102G/A103R/A169T/F55Y/I96L/K41T/L162R/M171V/P40S/Q125H/Q178H/Q39Y/R42S/S66N/T106N/T262R/W38E/Y61H)
Sequence of DRB1*0301 (P01903 26-254, other chains not shown): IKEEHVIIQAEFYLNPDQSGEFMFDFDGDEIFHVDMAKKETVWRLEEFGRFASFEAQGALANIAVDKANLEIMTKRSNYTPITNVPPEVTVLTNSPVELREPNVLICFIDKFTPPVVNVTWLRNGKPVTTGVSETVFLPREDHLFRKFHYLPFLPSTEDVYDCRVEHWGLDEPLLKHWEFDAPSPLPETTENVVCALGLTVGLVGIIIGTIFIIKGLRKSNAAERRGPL

DRB4*0101 = DRB4*0101 (Homo sapiens, UniProt P01903+P13762, G164S)
DRB1*1302 = DRB1*1302 (Homo sapiens, UniProt P01903+P01911, A100E/A169T/K41T/L162R/M171V/P40S/Q125H/Q178H/Q39Y/Q99D/R42S/S66N/T262R/V115G/W38E/Y61H)
Sequence of DRB1*1302 (P01903 26-254 limits assumed, other chains not shown): as the sequence (P01903 26-254, other chains not shown) above

DRB1*1501 = DRB1*1501 (Homo sapiens, UniProt P01903+P01911)
DRB3*0101 = DRB3*0101 (Homo sapiens, UniProt P01903+P79483)
DRB5*0101 = DRB5*0101 (Homo sapiens, UniProt P01903+Q30154)
DRB1*0405 = DRB1*0405 (Homo sapiens, UniProt P01903+P01911, A100R/A169T/D86S/F76Y/I96L/K127E/L162R/M171V/N62H/P40V/Q125Y/R42H/S133A/S149N/S66Y/V115G/V209L/W38E)
DRB1*0901 = DRB1*0901 (Homo sapiens, UniProt P01903+P01911, A100R/A103E/D57H/D86V/F55Y/F60I/F76Y/I96F/K127E/L162R/M171V/P40D/Q125H/Q99R/R33Q/R42F/S133A/S66N/T210M/V115G/W38K/Y107V/Y59G/Y89S)
DRB1*0404 = DRB1*0404 (Homo sapiens, UniProt P01903+P01911, A100R/A169T/F76Y/I96L/K127E/L162R/M171V/N62H/P40V/Q125Y/R42H/S133A/S149N/S66Y/V209L/W38E)
DRB1*1101 = DRB1*1101 (Homo sapiens, UniProt P01903+P01911, A100R/A169T/A87E/I96F/K41T/L162R/M171V/P40S/Q125H/Q178H/Q39Y/Q99D/R42S/S66Y/T262R/V115G/W38E)
Sequence of DRB1*1101 (P01903 26-254, other chains not shown): as above

DRB1*0701 = DRB1*0701 (Homo sapiens, UniProt P01903+P01911, A100R/A102G/A103Q/D57E/D86V/E43K/F76Y/K127E/L162R/M171V/P40G/Q125H/Q99D/R33Q/R42Y/R54Q/S133A/S66F/T210M/V115G/Y107V/Y59L/Y89S)
DRB1*0101 = DRB1*0101 (Homo sapiens, UniProt P01903+P01911, A100R/D57E/F55L/F60I/F76Y/I96L/L162R/M171V/P40L/Q125E/R42F/V115G/Y59C)
[1] = competitive inhibition of radiolabeled standard peptide, '-' distinct from ND, read-out: Binding Affinity (nM) DRB1*1302
[2] = competitive inhibition of radiolabeled standard peptide, '-' distinct from ND, read-out: Binding Affinity (nM) DRB1*0901

| Structure (SMILES) | IC50 (DRB1*0401) [nM] | IC50 (DRB1*0802) [nM] | IC50 (DRB1*0301) [nM] | IC50 (DRB4*0101) [nM] | IC50 (DRB1*1302; [1]) [nM] | IC50 (DRB1*1501) [nM] | IC50 (DRB3*0101) [nM] | IC50 (DRB5*0101) [nM] | IC50 (DRB1*0405) [nM] | IC50 (DRB1*0901; [2]) [nM] | IC50 (DRB1*0404) [nM] | IC50 (DRB1*1101) [nM] | IC50 (DRB1*0701) [nM] | IC50 (DRB1*1302) [nM] | IC50 (DRB1*0901) [nM] | IC50 (DRB1*0101) [nM] |
| --- | --- | --- | --- | --- | --- | --- | --- | --- | --- | --- | --- | --- | --- | --- | --- | --- |
| CC[C@H](C)[C@H](NC(=O)[C@H](CCCCN)NC(=O)CNC(=O)[C@H](CCC(=O)O)NC(=O)[C@@H](NC(=O)[C@H](CS)NC(=O)[C@H](CC(C)C)NC(=O)[C@H](CCCCN)NC(=O)[C@H](CCCNC(=N)N)NC(=O)[C@H](CC(C)C)NC(=O)[C@@H](NC(=O)[C@H](C)NC(=O)[C@H](CC(C)C)NC(=O)[C@H](CCC(N)=O)NC(=O)[C@@H](N)[C@@H](C)O)[C@@H](C)O)[C@@H](C)CC)C(=O)O [Envelope 51-65] | 2140 | 130 | 2510 | 154 | 1080 | 982 | 8300 | 1850 | 6340 | 2340 | 10100 | 40 |  |  |  |  |
| CC[C@H](C)[C@H](NC(=O)[C@H](CC(=O)O)NC(=O)CNC(=O)[C@@H](NC(=O)[C@@H](NC(=O)[C@@H](NC(=O)[C@@H](NC(=O)[C@H](CC(C)C)NC(=O)[C@@H](N)CCCCN)[C@@H](C)O)C(C)C)C(C)C)C(C)C)C(=O)N[C@H](C(=O)NCC(=O)N[C@H](C(=O)N[C@@H](CC(C)C)C(=O)N[C@@H](CCC(=O)O)C(=O)N[C@@H](CCC(N)=O)C(=O)O)C(C)C)[C@@H](C)CC [NS1 85-99] | 88 |  | 533 | 220 | 483 | 21 | 1680 | 77 | 1400 | 42 | 2660 | 807 | 70 |  |  |  |
| CSCC[C@H](NC(=O)CNC(=O)[C@H](CCCCN)NC(=O)[C@H](CC(C)C)NC(=O)[C@H](CCC(=O)O)NC(=O)[C@H](CC(C)C)NC(=O)[C@H](CCCCN)NC(=O)[C@H](CC(=O)O)NC(=O)[C@H](CCSC)NC(=O)[C@H](CCCCN)NC(=O)[C@H](CC(C)C)NC(=O)[C@H](CCCNC(=N)N)NC(=O)[C@H](CS)NC(=O)[C@H](CCCCN)NC(=O)[C@@H](N)CC(C)C)C(=O)O [Envelope 281-295] | 2910 | 4460 | 17 |  |  | 652 | 31 | 2500 | 9740 |  | 13200 | 3330 | 2160 | 915 | 7010 |  |
| CC[C@H](C)[C@H](NC(=O)[C@H](CC(C)C)NC(=O)[C@H](CC(N)=O)NC(=O)[C@H](Cc1ccc(O)cc1)NC(=O)[C@H](CC(N)=O)NC(=O)[C@@H]1CCCN1)C(=O)N[C@H](C(=O)N[C@@H](CCSC)C(=O)N[C@@H](CC(=O)O)C(=O)N[C@@H](CCC(=O)O)C(=O)N[C@@H](C)C(=O)N[C@@H](Cc1c[nH]cn1)C(=O)N[C@@H](Cc1ccccc1)C(=O)N[C@H](C(=O)N[C@@H](CC(=O)O)C(=O)O)[C@@H](C)O)[C@@H](C)CC [NS3 277-291] |  | 396 | 37 | 208 | 68 | 1320 | 4.4 | 7130 | 402 | 2600 | 1530 | 4610 | 2700 |  |  |  |
| CSCC[C@H](NC(=O)[C@H](CC(C)C)NC(=O)[C@H](CCCNC(=N)N)NC(=O)[C@H](Cc1c[nH]cn1)NC(=O)[C@H](CC(=O)O)NC(=O)[C@H](CS)NC(=O)[C@H](CC(C)C)NC(=O)[C@H](CCC(N)=O)NC(=O)[C@@H](NC(=O)[C@H](Cc1ccc(O)cc1)NC(=O)[C@@H](NC(=O)[C@@H](N)CCC(=O)O)C(C)C)[C@@H](C)O)C(=O)N[C@@H](CO)C(=O)N[C@@H](C)C(=O)N[C@@H](C)C(=O)O [NS1 173-187] | 502 | 900 | 787 | 6150 | 4600 | 1040 | 57 | 753 | 1450 | 608 | 1290 |  | 1660 |  |  | 26 |
